{"source": "patent US20140323416A1", "about": "“5-METHYLDIHYDROMORPHONE COMPOUNDS FOR TREATMENT OF PAIN” (priority 2013, published 2014)", "origin": "cited, not measured here"}
{"smiles": "CN1CC[C@]23c4c5ccc(O)c4O[C@@]2(C)C(=O)CC[C@H]3[C@H]1C5", "note": "[Metopon, metopon]", "values": [{"measurement": "bioavailability", "setting": "in vivo", "value": "low bioavailability"}, {"measurement": "emetic action", "setting": "in vivo", "value": "nearly devoid of emetic action"}, {"measurement": "analgesic effectiveness", "setting": "relative to morphine", "value": "at least double to that of morphine"}, {"measurement": "duration of action", "setting": "relative to morphine", "value": "about equal to that of morphine"}, {"measurement": "physical dependence", "setting": "relative to morphine", "value": "built up more slowly than with morphine"}, {"measurement": "potency", "setting": "relative to morphine", "value": "reduced potency relative to morphine"}, {"measurement": "tolerance", "setting": "relative to morphine", "value": "develop more slowly and to disappear more quickly"}, {"measurement": "respiratory depression", "setting": "therapeutic analgesic doses", "value": "little or no respiratory depression"}, {"measurement": "mental dullness", "setting": "therapeutic analgesic doses, relative to morphine", "value": "much less mental dullness than morphine"}]}
